Among the data in PMC4418667 (PLoS ONE, 2015) are IC50 values, retold here.

The target in this assay is T1, IKKβ (Homo sapiens, UniProt O14920).
T1 construct: gene IKBKB
T1 sequence (O14920 1-756): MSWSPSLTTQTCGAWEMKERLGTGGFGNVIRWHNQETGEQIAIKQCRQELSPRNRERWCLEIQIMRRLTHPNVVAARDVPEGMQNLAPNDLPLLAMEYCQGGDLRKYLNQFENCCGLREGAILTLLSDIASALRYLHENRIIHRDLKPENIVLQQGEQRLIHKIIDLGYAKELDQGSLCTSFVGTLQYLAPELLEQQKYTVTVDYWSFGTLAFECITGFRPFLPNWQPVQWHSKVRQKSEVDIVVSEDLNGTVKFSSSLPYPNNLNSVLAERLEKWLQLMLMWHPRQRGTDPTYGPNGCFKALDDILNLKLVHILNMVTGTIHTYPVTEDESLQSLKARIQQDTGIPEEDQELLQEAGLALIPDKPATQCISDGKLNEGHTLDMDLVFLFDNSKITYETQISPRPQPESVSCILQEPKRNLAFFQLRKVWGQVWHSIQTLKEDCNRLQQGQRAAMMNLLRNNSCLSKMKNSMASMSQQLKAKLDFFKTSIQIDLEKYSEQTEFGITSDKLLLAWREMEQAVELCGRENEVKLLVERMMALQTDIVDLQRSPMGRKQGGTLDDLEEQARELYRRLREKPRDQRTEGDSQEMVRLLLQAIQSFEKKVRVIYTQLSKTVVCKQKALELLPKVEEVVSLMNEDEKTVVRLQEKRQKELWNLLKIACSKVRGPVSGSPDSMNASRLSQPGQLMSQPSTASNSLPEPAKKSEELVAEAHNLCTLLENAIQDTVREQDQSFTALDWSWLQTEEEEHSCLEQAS
Description: biochemical.
Regarding `C[C@H]1[C@H](C)CC[C@]2(C(=O)O)CC[C@]3(C)C(=CC[C@@H]4[C@@]5(C)CC[C@H](O)C(C)(C)[C@@H]5CC[C@]43C)[C@H]12` [UA, Ursolic Acid], the IC50 (as a rule, the concentration needed to halve the response being measured) amounted to 69 µM. That is a double-digit micromolar value.

For `C[C@H]1[C@H](C)CC[C@]2(C(=O)O)CC[C@]3(C)C(=CC[C@@H]4[C@@]5(C)C[C@@H](O)[C@H](O)[C@@](C)(CO)[C@@H]5CC[C@]43C)[C@H]12` [AA, Asiatic Acid], inhibition was half-maximal at 95 µM (IC50). The IC50 values of the last two compounds are within 1.5-fold of each other.

As for `C[C@H]1[C@H](C)CC[C@]2(C(=O)O)CC[C@]3(C)C(=CC[C@@H]4[C@@]5(C)C[C@@H](O)[C@H](O)C(C)(C)[C@@H]5CC[C@]43C)[C@H]12` [CA, Corosolic Acid], the half-maximal inhibitory concentration (IC50) turned out to be 89.3 µM.
